Reference: PubChem BioAssay (NCI)
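Protocol summary: plate cells (96-well), add compound at 5 concentrations, incubate 48 h, interpolate endpoints linearly. GI50 is the concentration that inhibits growth by half. Definition used: TGI = concentration required for complete inhibition of growth.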

Key:
Test in all cases: NCI-60 cell line screen, 48 h
OVCAR-4 ovarian = system: OVCAR-4 ovarian
HCT-116 colon = system: HCT-116 colon
RXF 393 renal = system: RXF 393 renal
A549 NSCLC = system: A549 NSCLC
HL-60(TB) leukemia = system: HL-60(TB) leukemia
K-562 leukemia = system: K-562 leukemia
SK-MEL-28 melanoma = system: SK-MEL-28 melanoma
UACC-62 melanoma = system: UACC-62 melanoma
NCI/ADR-RES ovarian = system: NCI/ADR-RES ovarian
MDA-N = system: MDA-N

SMILES | TGI (OVCAR-4 ovarian) [µM] | TGI (HCT-116 colon) [µM] | TGI (RXF 393 renal) [µM] | TGI (A549 NSCLC) [µM] | TGI (HL-60(TB) leukemia) [µM] | TGI (K-562 leukemia) [µM] | TGI (SK-MEL-28 melanoma) [µM] | TGI (UACC-62 melanoma) [µM] | TGI (NCI/ADR-RES ovarian) [µM] | TGI (MDA-N) [µM] | GI50 (OVCAR-4 ovarian) [µM] | GI50 (HCT-116 colon) [µM] | GI50 (RXF 393 renal) [µM] | GI50 (A549 NSCLC) [µM] | GI50 (HL-60(TB) leukemia) [µM] | GI50 (K-562 leukemia) [µM] | GI50 (SK-MEL-28 melanoma) [µM] | GI50 (NCI/ADR-RES ovarian) [µM] | GI50 (UACC-62 melanoma) [µM]
NCc1cccc(O)c1O | > 100 | > 100 | > 100 | > 100 | > 100 | > 100 | > 100 | > 100 |  |  |  |  |  |  |  |  |  |  | 
CCOC(=O)c1cc(C)nc2c1c(=O)n(-c1ccccc1)c(=O)n2CCCCN1CCN(c2ccccc2)CC1 | > 100 | > 100 | > 100 | > 100 | 49.1 | > 100 | > 100 | > 100 | > 100 |  |  |  |  |  |  |  |  |  | 
CN(Cc1cnc2nc(N)nc(N)c2n1)c1ccc(C(=O)NC(CO)CCCO)cc1 (stereo not given) |  | > 100 | > 100 |  | > 100 | > 100 | > 100 | > 100 | > 100 | > 100 |  |  |  |  |  |  |  |  | 
c1ccc(/C(=N/Nc2ccncn2)c2ccccn2)cc1 | > 100 | > 100 | > 100 | > 100 |  | > 100 | > 100 | > 100 | 49 | > 100 |  |  |  |  |  |  |  |  | 
CC1(C)CC(=O)C2(CC(CSc3ccccc3)C(CS(=O)(=O)c3ccccc3)C2)C(=O)C1 (stereo not given) | > 100 | > 100 | > 100 | > 100 |  | > 100 | > 100 | > 100 | > 100 |  |  |  |  |  |  |  |  |  | 
COc1ccc(OC)c(SC(CC(=O)c2ccccc2)c2ccccc2)c1 (stereo not given) | > 100 | 11 | 31.1 | 91.7 | > 100 | > 100 | 32.6 | 30.7 | 32.4 |  |  |  |  |  |  |  |  |  | 
O=C(O)COc1cc(-c2ccccc2)nc2cc(F)ccc12 | > 100 | > 100 |  | > 100 | > 100 | > 100 | > 100 | > 100 | > 100 | > 100 |  |  |  |  |  |  |  |  | 
O=c1c(-c2ccccc2)c(SCCO)n(-c2ccccc2)c(=S)n1-c1ccccc1 | > 100 | > 100 |  | > 100 | > 100 | > 100 | > 100 | > 100 | > 100 | > 100 |  |  |  |  |  |  |  |  | 
O=C1c2c(O)cccc2-c2nn(CCNCCO)c3ccc(NCCNCCO)c1c23 | 2.97 | 2.75 | 1.37 | 0.482 | 0.123 |  | 1.97 | 0.344 | > 100 | 1.94 |  |  |  |  |  |  |  |  | 
Cc1ccc(S(=O)CC(CF)OCn2cc(C)c(=O)[nH]c2=O)cc1 (stereo not given) | > 100 | > 100 |  | > 100 | > 100 |  | > 100 | > 100 | > 100 | > 100 |  |  |  |  |  |  |  |  | 
O=c1oc(C(C(F)(F)F)C(F)(F)F)nc2ccccc12 | > 100 | > 100 | > 100 | > 100 | > 100 | > 100 | > 100 |  | > 100 |  |  |  |  |  |  |  |  |  | 
Cc1nc(N)c(N2CCN(CN)CC2)c(=O)[nH]1 | > 100 | > 100 |  | > 100 | > 100 | > 100 | > 100 |  | > 100 | > 100 |  |  |  |  |  |  |  |  | 
CC1=NN(C(=O)c2ccc(Cl)cc2)C(=O)/C1=C/c1ccccc1O | > 100 | > 100 | > 100 | > 100 | > 100 | > 100 | > 100 | > 100 |  |  |  |  |  |  |  |  |  |  | 
COC[C@@H](N=Cc1ccc([N+](=O)[O-])cc1)C(C)C | > 100 | > 100 | > 100 | > 100 |  | > 100 | > 100 | > 100 | > 100 | > 100 |  |  |  |  |  |  |  |  | 
COc1cnc2c(c1)C(=O)c1c-2n(CCCNCCO)c(=O)c2ccncc12 | 7.46 | 16.9 | 3.48 | 9.38 | 11.4 | 13 | 5.79 | 2.12 | 30.8 |  | 1.38 | 0.489 | 1.2 | 1.99 | 2.74 | 0.856 | 2.08 | 5.83 | 0.552
O=C(CCN1CCN2c3ccccc3CCC2C1)c1ccc(F)cc1 (stereo not given) | 37.8 | > 100 | 43.3 | > 100 | 89.6 | > 100 | 32.2 | > 100 | > 100 |  |  |  |  |  |  |  |  |  | 
COc1ccc(/C(Cl)=C/c2cc(OC)ccc2OC)cc1 | > 100 | > 100 | 69.6 | > 100 | 81.8 | > 100 | > 100 | > 100 |  |  |  |  |  |  |  |  |  |  | 
COc1ccc(-c2oc3cc(O)cc(O)c3c(=O)c2OC)cc1 | > 100 | > 100 |  | > 100 | 38.4 | > 100 | > 100 | > 100 | > 100 | > 100 |  |  |  |  |  |  |  |  | 
COc1cc2cc(C(=O)N3CC(COS(C)(=O)=O)c4ccc(O)cc43)[nH]c2c(OC)c1OC (stereo not given) |  | 0.138 | < 0.0001 |  |  |  |  |  | 0.524 |  |  |  |  |  |  |  |  |  | 
O=C(O)c1ccccc1N=Cc1ccc(N(CCCl)CCCl)cc1 | > 100 | > 100 | > 73.2 | > 100 | > 100 | > 100 | > 100 | > 100 | > 100 |  |  |  |  |  |  |  |  |  | 
CC(C)C(C/C=C1\CC(CO)(COC(=O)C2CCCCC2)OC1=O)C(C)C (stereo not given) | 36 | 36.5 | 35.4 | 32 |  | 55.6 | 33.8 | > 100 | 45.1 | 59.3 |  |  |  |  |  |  |  |  | 
c1ccc2c(c1)SCCCSCCSCCCS2 | > 100 | > 100 |  | > 100 | > 100 | > 100 | > 100 | > 100 | > 100 | > 100 |  |  |  |  |  |  |  |  | 
Cc1cc(OC(=O)NCn2cc(-c3ccccc3)nn2)ccc1Cl | > 100 | > 100 |  | > 100 | > 100 | > 100 | > 100 |  | > 100 |  |  |  |  |  |  |  |  |  | 
